# Measured values: article PMC8102414 (Heliyon, 2021)
# Read-outs that look alike come from different tables or passages of the source.
# What was measured:
# α-glucosidase = α-glucosidase (Saccharomyces cerevisiae, UniProt P53341); type: biochemical; settings: Inactive at >100 μM
# α-amylase = α-amylase (Sus scrofa, UniProt P00690); type: biochemical; settings: Inactive at >100 μM
# [1] = test system: advanced glycation end products (AGEs); assay: Glycation inhibition assay; type: biochemical; settings: Inactive at >100 μM
# 3T3-L1 adipocyte cells = assay: Glucose consumption assay; type: cell-based; settings: for Glucose consumption (IC50, μM): induction of glucose consumption, 3T3-L1 adipocyte cells, Inactive at >100 μM; for EC50: Mus musculus, 3T3-L1, read-out: Glucose consumption (IC50, μM)
# L6 myotube cells = assay: Glucose uptake assay; type: cell-based; settings: Inactive at >100 μM
# RAW 264.7 cells [2] = assay: Nitric oxide production inhibition assay; type: cell-based
# 3T3-L1 cells = assay: in vitro; type: cell-based; settings: for toxicity to the cells: 3T3-L1 adipocyte cells, glucose consumption assay
# RAW 264.7 cells [3] = assay: in vitro; type: cell-based; settings: MTT assay
# [4] = test system: Salmonella typhi DMST 22842; assay: microbe, parasite or virus in culture; type: cell-based; settings: Gram-negative; Salmonella typhi (DMST 22842); Inactive at >128 μg/mL
# [5] = test system: Enterococcus faecalis ATCC 29212; assay: Antimicrobial MIC, 2-fold serial dilution; settings: for MIC (μg/mL) EF: Gram-positive, Enterococcus faecalis (ATCC 29212), Inactive at >128 μg/mL
# [6] = test system: Micrococcus luteus DMST 15503; assay: Antimicrobial MIC, 2-fold serial dilution; settings: for MIC (μg/mL) MT: Gram-positive, Micrococcus luteus (DMST 15503), Inactive at >128 μg/mL
# [7] = test system: methicillin resistant Staphylococcus aureus NPRC 001R; assay: Antimicrobial MIC, 2-fold serial dilution; settings: for MIC (μg/mL) MRSA: Gram-positive, Methicillin Resistant Staphylococcus aureus (NPRC 001R), Inactive at >128 μg/mL
# [8] = test system: Staphylococcus aureus ATCC 25923; assay: Antimicrobial MIC, 2-fold serial dilution; settings: for MIC (μg/mL) SA: Gram-positive, Staphylococcus aureus (ATCC 25923), Inactive at >128 μg/mL
# [9] = test system: Streptococcus pyogenes ATCC, 19615; assay: Antimicrobial MIC, 2-fold serial dilution; settings: for MIC (μg/mL) SP: Gram-positive, Streptococcus pyogenes (ATCC, 19615), Inactive at >128 μg/mL
# [10] = test system: Shigella flexneri DMST 4423; assay: Antimicrobial MIC, 2-fold serial dilution; settings: for MIC (μg/mL) SF: Gram-negative, Shigella flexneri (DMST 4423), Inactive at >128 μg/mL
# [11] = test system: Pseudomonas aeruginosa ATCC 10145; assay: Antimicrobial MIC, 2-fold serial dilution; settings: for MIC: Pseudomonas aeruginosa, ATCC10145, read-out: MIC (μg/mL) PA
# [12] = test system: Salmonella typhimurium DMST 562; assay: Antimicrobial MIC, 2-fold serial dilution; settings: for MIC (μg/mL) STR: Gram-negative, Salmonella typhimurium (DMST 562), Inactive at >128 μg/mL
# [13] = test system: Escherichia coli TISTR 780; assay: Antimicrobial MIC, 2-fold serial dilution; settings: Gram-negative; Escherichia coli (TISTR 780); Inactive at >128 μg/mL
# [14] = test system: Candida albicans ATCC 10231; assay: Antimicrobial MIC, 2-fold serial dilution; settings: Fungi; Candida albicans (ATCC 10231); Inactive at >128 μg/mL
# S. aureus and MRSA [15] = settings: previous study; ref Innok et al., 2010; cited from earlier work
# S. aureus and MRSA [16] = assay: Antibacterial MIC against S. aureus and MRSA; settings: Staphylococcus aureus, read-out: MIC values against S. aureus and MRSA
# [17] = test system: Gram-positive bacteria and fungi; assay: Antimicrobial MIC, summary over Gram-positive bacteria and fungi; settings: read-out: MIC values against Gram-positive bacteria and fungi
# in vitro [18] = type: cell-based; settings: mouse
# in vitro [19] = type: cell-based; settings: mouse; remark: listed apart in the source
# [20] = LPS-stimulated NO production in RAW 264.7 cells, Inactive at >100 μM
# α-glucosidase, sequence (P53341 whole entry): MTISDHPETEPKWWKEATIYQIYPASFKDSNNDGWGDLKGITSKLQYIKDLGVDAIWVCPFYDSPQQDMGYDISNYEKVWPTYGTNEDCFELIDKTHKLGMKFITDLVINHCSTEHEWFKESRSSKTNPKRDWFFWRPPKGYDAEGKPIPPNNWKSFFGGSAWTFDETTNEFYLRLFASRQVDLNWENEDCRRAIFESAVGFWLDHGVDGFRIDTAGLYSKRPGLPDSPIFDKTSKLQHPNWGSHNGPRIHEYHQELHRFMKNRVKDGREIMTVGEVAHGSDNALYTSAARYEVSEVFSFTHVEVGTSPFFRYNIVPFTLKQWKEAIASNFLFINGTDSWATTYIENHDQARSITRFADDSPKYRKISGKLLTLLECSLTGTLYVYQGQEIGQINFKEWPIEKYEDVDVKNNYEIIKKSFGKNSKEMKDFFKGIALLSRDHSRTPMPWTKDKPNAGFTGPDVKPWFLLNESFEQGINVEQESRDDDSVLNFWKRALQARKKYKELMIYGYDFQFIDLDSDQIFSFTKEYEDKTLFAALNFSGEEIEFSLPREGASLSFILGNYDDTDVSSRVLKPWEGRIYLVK
# α-amylase, sequence (P00690 16-511): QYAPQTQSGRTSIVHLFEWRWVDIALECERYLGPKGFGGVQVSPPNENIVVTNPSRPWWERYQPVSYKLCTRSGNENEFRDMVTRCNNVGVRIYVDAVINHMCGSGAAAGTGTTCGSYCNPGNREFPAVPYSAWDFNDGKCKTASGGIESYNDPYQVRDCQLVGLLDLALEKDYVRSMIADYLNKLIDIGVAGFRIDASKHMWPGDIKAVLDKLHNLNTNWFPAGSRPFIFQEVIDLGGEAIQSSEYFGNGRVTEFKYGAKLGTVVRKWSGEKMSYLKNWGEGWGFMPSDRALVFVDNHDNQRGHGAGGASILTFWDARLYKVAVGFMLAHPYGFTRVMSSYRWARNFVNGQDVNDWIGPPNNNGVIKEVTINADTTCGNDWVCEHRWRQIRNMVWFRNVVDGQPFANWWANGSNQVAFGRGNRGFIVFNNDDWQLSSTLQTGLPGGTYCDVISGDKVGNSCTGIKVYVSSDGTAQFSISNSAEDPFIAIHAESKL
Compound,"Glucose consumption (IC50, μM) (3T3-L1 adipocyte cells)","NO Inhibition (IC50, μM) (RAW 264.7 cells [2]; [20])",Cell viability raw 264.7 cells (%) (RAW 264.7 cells [3]),MIC (μg/mL) ST [4],MIC (μg/mL) EF [5],MIC (μg/mL) MT [6],MIC (μg/mL) MRSA [7],MIC (μg/mL) SA [8],MIC (μg/mL) SP [9],MIC (μg/mL) SF [10],MIC (μg/mL) STR [12],MIC (μg/mL) EC [13],MIC (μg/mL) CA [14],"Glycation inhibition (IC50, μM) [1]",MIC [11] [µg/mL],EC50 (3T3-L1 adipocyte cells) [µM],toxicity to the cells (3T3-L1 cells),viability (in vitro [18]) [%],viability (in vitro [19]) [%],also measured
"4′-hydroxy-6,3′,5′-triprenylisoflavanone [Compound 24]",Inactive,Inactive,3.7 ± 0.1,128 µg/mL,Inactive,Inactive,128 µg/mL,128 µg/mL,128 µg/mL,Inactive,Inactive,128 µg/mL,128 µg/mL,–,–,–,–,–,–,"α-Glucosidase inhibition (IC50, μM) (α-glucosidase): Inactive; α-Amylase inhibition (IC50, μM) (α-amylase): Inactive; IC50 ([1]; read-out: Glycation inhibition (IC50)): 40.5 ± 0.37 µM; Glucose uptake (fold) (L6 myotube cells): Inactive; Cell viability of 3T3-L1 cells (%) (3T3-L1 cells; MTT assay): 39.7 ± 0.7%; MIC (μg/mL) PA ([11]; Gram-negative, Pseudomonas aeruginosa (ATCC 10145), Inactive at >128 μg/mL): 128 µg/mL"
"N=C(N)NN [Aminoguanidine, aminoguanidine, reference compound]",–,–,97.9 ± 0.8,–,–,–,–,–,–,–,–,–,–,–,–,–,–,–,–,"IC50 (RAW 264.7 cells [2]; read-out: NO Inhibition (IC50), LPS-stimulated NO production in RAW 264.7 cells, Inactive at >100 μM): 22.4 ± 0.78 µM"
"COc1ccc2c(c1CC=C(C)C)O[C@H]1c3ccc(O)cc3OC[C@@H]21 [Compound 10, sandwicensin]",Inactive,Inactive,–,Inactive,–,–,–,–,–,–,–,Inactive,–,Inactive,128,–,–,–,–,"MIC values against S. aureus and MRSA (reported) (S. aureus and MRSA [15]): 8 to 64 µg/mL; MIC ([5]; Enterococcus faecalis, ATCC29212, read-out: MIC (μg/mL) EF): 8 µg/mL; MIC ([6]; Micrococcus luteus, DMST15503, read-out: MIC (μg/mL) MT): 8 µg/mL; MIC ([7]; Staphylococcus aureus, MRSA, read-out: MIC (μg/mL) MRSA): 8 µg/mL; MIC ([8]; Staphylococcus aureus, ATCC25923, read-out: MIC (μg/mL) SA): 64 µg/mL; MIC ([9]; Streptococcus pyogenes, read-out: MIC (μg/mL) SP): 8 µg/mL; MIC ([10]; Shigella flexneri, DMST4423, read-out: MIC (μg/mL) SF): 128 µg/mL; MIC ([12]; Salmonella enterica, TYPHIMURIUM, read-out: MIC (μg/mL) STR): 128 µg/mL; MIC (S. aureus and MRSA [16]): 8 to 64 µg/mL; MIC [17]: 8 to 64 µg/mL"
"COc1c2c(cc3oc(=O)ccc13)OC(C)(C)C=C2 [Compound 26, xanthoxyletin]",–,Inactive,–,Inactive,Inactive,Inactive,Inactive,Inactive,Inactive,Inactive,Inactive,Inactive,Inactive,Inactive,128,33.4 ± 0.34,without toxicity to the cells,–,–,–
"CC1(C)C=Cc2cc(C=O)ccc2O1 [Compound 27, 2,2-dimethyl-2H-chromene-6-carboxaldehyde]",–,–,–,Inactive,Inactive,Inactive,Inactive,Inactive,Inactive,Inactive,Inactive,Inactive,Inactive,Inactive,128,29.1 ± 0.86,without toxicity to the cells,98.2 ± 1.7,97.9 ± 1.2,"IC50 (RAW 264.7 cells [2]; Mus musculus, RAW264.7, read-out: NO Inhibition (IC50, μM)): 52.5 ± 0.56 µM"
"CN(C)C(=N)N=C(N)N [Metformin, metformin, reference compound]",–,–,–,–,–,–,–,–,–,–,–,–,–,–,–,47.2 ± 1.17,–,96.1 ± 0.9,99.4 ± 0.6,–
